The record followed here is PubChem BioAssay (NCI).

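Cultured in 96-well plates, cells were exposed to test compound for 48 hours across five concentrations. GI50: concentration for 50% inhibition of growth. TGI: total growth inhibition.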 Where only a bound is given, the exact number is not on record here.

Among the test systems are NCI-H23 lung; UACC-257 melanoma; OVCAR-8 ovarian; DU-145 prostate; HCC-2998 colon; OVCAR-4 ovarian; A549 NSCLC; SW-620 colon.
What all share (assay): inhibition of tumour cell growth, NCI panel, 48 h

Regarding `O=C(Nc1cccc(-n2cc(-c3ccncc3)c(-c3ccc(O)c(Cl)c3)n2)c1)c1cccc(C(F)(F)F)c1`, the GI50 with NCI-H23 lung is 4.38 µM; with UACC-257 melanoma it was 8.15 µM; in the assay with OVCAR-8 ovarian, 3.89 µM; with DU-145 prostate, 6.52 µM; in the assay with HCC-2998 colon it was 4.37 µM; in the assay on OVCAR-4 ovarian, 5.33 µM. Also, the GI50 in the assay on A549 NSCLC was 2.5 µM; in the assay with SW-620 colon it was 5.81 µM. Moreover, the TGI in the assay on NCI-H23 lung, in the assay with UACC-257 melanoma, in the assay with OVCAR-8 ovarian, in the assay with DU-145 prostate, in the assay with HCC-2998 colon and with OVCAR-4 ovarian was above 100 µM each time. In addition, the TGI in the assay on A549 NSCLC and in the assay on SW-620 colon was above 100 µM in each case.
Consider `CC(C)OC1OC(CO)C(O)CC1n1cc(F)c(=O)[nH]c1=O` (stereo unspecified), for which the TGI in the assay on NCI-H23 lung, with UACC-257 melanoma, in the assay with OVCAR-8 ovarian, in the assay with DU-145 prostate, in the assay on HCC-2998 colon and with OVCAR-4 ovarian was above 100 µM each time. For the same compound, the TGI with A549 NSCLC and with SW-620 colon was above 100 µM in each case.
`CCOC(=O)C(=O)C(=O)NN(C)C1=NCCN1`: the TGI in the assay with NCI-H23 lung, with UACC-257 melanoma, in the assay with OVCAR-8 ovarian, in the assay with DU-145 prostate, with HCC-2998 colon and in the assay with OVCAR-4 ovarian was above 100 µM in each case. In addition, the TGI in the assay with A549 NSCLC and with SW-620 colon was above 100 µM throughout.
As to `O=C1CC(n2cccc2)c2c(Br)sc(Br)c21` (stereo unspecified), the TGI in the assay on NCI-H23 lung came out at 27.9 µM; with UACC-257 melanoma, 30.9 µM; in the assay on OVCAR-8 ovarian it was 37.8 µM; in the assay on DU-145 prostate, 31.8 µM; with HCC-2998 colon it was 28.7 µM; in the assay with OVCAR-4 ovarian, 33.4 µM. Also, the figures for the TGI in the assay on A549 NSCLC and with SW-620 colon were 61.8 µM and 41.3 µM, respectively.
Consider `Cc1nc2ccc(Cl)cc2c2c1CCN2c1ccccc1`, for which the TGI is 43.6 µM with NCI-H23 lung; 29.1 µM in the assay on UACC-257 melanoma; 29.1 µM in the assay on OVCAR-8 ovarian; 63.8 µM with DU-145 prostate; 24.8 µM with HCC-2998 colon; above 100 µM in the assay with OVCAR-4 ovarian. The TGI came out at 46.6 µM in the assay on A549 NSCLC and 63.9 µM with SW-620 colon.
On to `Nc1nc(Cl)cc(NCC2(O)CCCC2)n1`, for which the TGI in the assay on NCI-H23 lung, in the assay with UACC-257 melanoma, in the assay with OVCAR-8 ovarian, in the assay on DU-145 prostate, in the assay with HCC-2998 colon and in the assay on OVCAR-4 ovarian was above 100 µM throughout. Moreover, the TGI in the assay with A549 NSCLC and with SW-620 colon was above 100 µM in each case.
As for `c1ccc(-c2nnn(CCN3CCCCC3)n2)cc1`, the TGI in the assay with NCI-H23 lung, in the assay on UACC-257 melanoma, in the assay with OVCAR-8 ovarian, in the assay on DU-145 prostate, in the assay with HCC-2998 colon and in the assay on OVCAR-4 ovarian was above 100 µM each time. Also, the TGI with A549 NSCLC and in the assay with SW-620 colon was above 100 µM throughout.
In the case of `COC(=O)c1c(C)nc(C)c(NO)c1-c1ccccc1C(F)(F)F`, the TGI was 84.3 µM with NCI-H23 lung; 42.8 µM with UACC-257 melanoma; 33.2 µM with OVCAR-8 ovarian; above 100 µM with DU-145 prostate; above 100 µM in the assay with HCC-2998 colon; 39.2 µM with OVCAR-4 ovarian. The TGI in the assay on A549 NSCLC is above 100 µM; with SW-620 colon it was 30.2 µM.
As for `CCOC(=O)C1CCCCN1CCc1c[nH]c2ccccc12` (stereo unspecified), the TGI with NCI-H23 lung, in the assay on UACC-257 melanoma, with OVCAR-8 ovarian, with DU-145 prostate, with HCC-2998 colon and in the assay on OVCAR-4 ovarian was above 100 µM throughout. Also, the TGI in the assay on A549 NSCLC and in the assay with SW-620 colon was above 100 µM throughout.
For `CCOC(=O)c1cn(C)c(=S)n2c1nc1ccccc12`, the TGI in the assay on NCI-H23 lung, in the assay on UACC-257 melanoma, in the assay on OVCAR-8 ovarian, in the assay on DU-145 prostate, in the assay with HCC-2998 colon and in the assay on OVCAR-4 ovarian was above 100 µM throughout. Also, the TGI in the assay on A549 NSCLC and with SW-620 colon was above 100 µM in each case.
`O=[N+]([O-])c1ccc(C(Nc2ccccc2)c2ccc3cccnc3c2O)cc1` (stereo unspecified): the TGI is above 100 µM with NCI-H23 lung; 42.8 µM in the assay with UACC-257 melanoma; 52.3 µM in the assay on OVCAR-8 ovarian; above 100 µM in the assay with DU-145 prostate; 97.7 µM in the assay with HCC-2998 colon; 47.7 µM with OVCAR-4 ovarian. Besides, the TGI in the assay with A549 NSCLC and in the assay on SW-620 colon was above 100 µM in each case.
`NC(=O)Cc1nc2c(=O)[nH]cnc2n1C1OC(CO)C(O)C1O` (stereo unspecified): the TGI with NCI-H23 lung, with UACC-257 melanoma, in the assay with OVCAR-8 ovarian, in the assay on DU-145 prostate, with HCC-2998 colon and in the assay on OVCAR-4 ovarian was above 100 µM in each case. Besides, the TGI with A549 NSCLC and in the assay on SW-620 colon was above 100 µM throughout.
In the case of `Cc1ccc(-c2n[nH]c(=O)n2/N=C\c2ccccc2)cc1`, the TGI in the assay on NCI-H23 lung, in the assay with UACC-257 melanoma, with OVCAR-8 ovarian, in the assay with DU-145 prostate, with HCC-2998 colon and in the assay on OVCAR-4 ovarian was above 100 µM in each case. Further, the TGI in the assay on A549 NSCLC and with SW-620 colon was above 100 µM throughout.
Regarding `COc1c(C)c(C/C=C(\C)CC/C=C(\C)CCC=C(C)C)c(OC)c(OC)c1OC`, the TGI in the assay on NCI-H23 lung, with UACC-257 melanoma, in the assay with OVCAR-8 ovarian, with DU-145 prostate, in the assay on HCC-2998 colon and with OVCAR-4 ovarian was above 100 µM throughout. Further, the TGI in the assay with A549 NSCLC and with SW-620 colon was above 100 µM throughout.
For `CC1OC2OC3C(OCC(O)C3O)OC(=O)[C@]34CCC(C)(C)CC3C3=CCC5[C@@]6(C)C[C@H](O)[C@H](OC7OC(CO)C(O)C(O)C7OC7OCC(OC(=O)CC(C)(O)CC(=O)OC1C(OC1OC(CO)C(O)C(O)C1O)C2O)C(O)C7O)[C@@](C)(CO)C6CC[C@@]5(C)[C@]3(C)CC4` (stereo partly specified), the TGI came out at 14.1 µM in the assay with NCI-H23 lung; 12.7 µM in the assay on UACC-257 melanoma; 23.6 µM in the assay with OVCAR-8 ovarian; 17.3 µM with DU-145 prostate; 8.52 µM with HCC-2998 colon; 17.1 µM in the assay with OVCAR-4 ovarian. Moreover, the TGI with A549 NSCLC stood at 13.5 µM; with SW-620 colon, 20.3 µM.
For `COC1(OC)c2no[n+]([O-])c2C(OC)(OC)c2c1no[n+]2[O-]`, the TGI was 28.2 µM in the assay with NCI-H23 lung; 25 µM with UACC-257 melanoma; 26.7 µM in the assay with OVCAR-8 ovarian; above 100 µM in the assay on DU-145 prostate; 41.6 µM in the assay with HCC-2998 colon; above 100 µM in the assay on OVCAR-4 ovarian. Further, the TGI is 82 µM in the assay on A549 NSCLC and 35.8 µM in the assay on SW-620 colon.
